Results: article PMC10108821, “Three tyrosine kinase inhibitors cause cardiotoxicity by inducing endoplasmic reticulum stress and inflammation in cardiomyocytes” (BMC Medicine, 2023)

What was measured:
Cor.4U hiPSC-CMs = experiment: ATP level (CellTiter-Glo) in hiPSC-CMs; type: cell-based, human
ER stress genes in NRCMs = experiment: qRT-PCR of ER stress genes in NRCMs; type: cell-based, rat; details: afatinib 5.62 µM, sorafenib 3.16 μM, ponatinib 1.78 μM
Sprague-Dawley rats = experiment: Rat gavage cardiotoxicity model: survival, heart and body weight; details: day 7; ponatinib 15 mg/kg, sorafenib 50 mg/kg gavage once daily
Method: All experiments were performed in accordance with relevant guidelines and regulations approved by the Institutional Animal Care and Use Committee (IACUC) at Peking University Health Science Center. Sprague-Dawley rats (170-200g) were purchased from Beijing Vital River Laboratory Animal Technology. Forty-eight male rats were randomly divided into six groups, with 8 animals per group. […] The gavage was done daily starting at 10am. At the end of the experiments, rats were euthanized by CO2 about 5~6 hours after the last gavage, and then hearts were harvested for further study. Left ventricular muscle was dissected and divided into 3 parts with similar size, one of which was used for RNA extraction and qRT-PCR.

CNC(=O)c1cc(Oc2ccc(NC(=O)Nc3ccc(Cl)c(C(F)(F)F)c3)cc2)ccn1 [sorafenib]
effect on ATP levels (Cor.4U hiPSC-CMs; 0.32 to 10 µM, day 1 to day 5): slight increase in the ATP level at day 1, but decrease at day 5
EC50 (ATP) compared with maximal plasma concentration (Cmax) (Cor.4U hiPSC-CMs; day 5): lower than or similar to their maximal plasma concentrations (Cmax)
temporal activation of ER stress genes, 72 versus 24 h (ER stress genes in NRCMs): most gene targets of ER stress were downregulated over time
heart or body weight (Sprague-Dawley rats): not changed
